Reference: US10905646B2, “Thermoplastic polyurethane film for delivery of active agents to skin surfaces” (Lubrizol Advanced Materials, Inc., priority 2014, dated 2021)
Values joined by “and” are separate entries in the source; they are usually repeats but may differ in a detail not shown here. Identical values can stand only once.

Experiments:
[1] = Concentration of active in wet polymer K after soaking, by HPLC; assay type: physicochemical; conditions: replicate samples
Method: The sample is placed in approximately 5 mL of soaking solution (TABLE 17) and suspended for 30 minutes in the solution. The sample is periodically checked to ensure it remains totally immersed in the solution. At the end of soaking time, the sample is removed and reweighed (final sample diameter, about 2.1 cm). The concentration of caffeine in the wet polymer sample is measured by HPLC and is shown in TABLE 18 (HPLC: Shimadzu Scientific Prominence System; Column: […].: 250×4.6 mm; Carrier Phase: A: Water, B: Methanol (65:35 v/v); Oven Temperature: Room Temperature (approx. 22° C.); Flow Rate: 1 mL/min.; UV detection: 254 nm). […] At the conclusion of the 30 min. soaking period the sample is removed from the dimethylmethoxy chromanyl palmitate solution and re-weighed (TABLE 20). The final sample diameter is about 2.0 cm. […] At the conclusion of the 30 min. soaking period the sample is removed from the arbutin solution and re-weighed. The final sample diameter is about 2.2 cm. […] (TABLE 23) and suspended for 90 minutes in the solution. […] At the conclusion of the 90 min. soaking period the sample is removed from the acetyl hexapeptide-37 solution and re-weighed. The final sample diameter is about 2.2 cm. […] (TABLE 25) and suspended for 90 minutes in the acetyl hexapeptide-8 solution. […] At the end of the 90 minute soaking time, the square is removed and weighed again (final piece diameter: 2.2 cm). The same study is performed with a lower concentration of peptide, as follows. […] At the end of the soaking time, the square is removed from the low concentration acetyl hexapeptide-8 solution and weighed again (final piece diameter: 2.2 cm).

[2] = Percutaneous absorption study on pig skin, Franz diffusion cell; assay type: in vitro ADME, domestic pigs (Sus domesticus); conditions: Franz cell receptor fluid (PBS), HPLC
Method: A percutaneous absorption study is performed on pig skin test samples obtained from the back of domestic pigs (Sus domesticus) weighing about 30 kg. The pig skin is dermatomed to a thickness of about 500 microns and then test discs having a diameter of 2.5 cm are sectioned from the dermatomed skin. […] The loaded films are applied to the sample discs (in contact with the stratum corneum) for 30 minutes. Different layers of the film treated skin (stratum corneum, epidermis and dermis) are separated, assayed and analyzed for the quantity of caffeine and permeation into the respective layers of the skin. The quantitative analysis for caffeine and is conducted by HPLC utilizing the instrumentation identified above.
Additionally, the same solutions utilized to load the polymer films are topically applied across the entire surface of the stratum corneum of comparative pig skin disc samples prepared as above. […]
The lower chamber contained the receptor fluid (PBS solution, Sigma-Aldrich Co. LLC). The integrity of the skin is evaluated by measuring the transepidermal water loss (TEWL). […] The collected receptor fluid is analyzed by HPLC as described above.
The quantities of caffeine that permeated into each of the three different layers of the skin samples (stratum corneum, epidermis and dermis) are collected separately as follows. […]

With `CCCCCCCCCCCCCCCC(=O)Oc1cc2c(cc1OC)OC(C)(C)CC2` [dimethylmethoxy chromanyl palmitate] the “% Dimethylmethoxy chromanyl palmitate (w/w), vs. wet polymer” value ([1]; film of Polymer K soaked 30 minutes in liposome soaking solution with 2 % dimethylmethoxy chromanyl palmitate) was 1.074 % (w/w) and 0.964 % (w/w) and 1.009 % (w/w) and 0.994 % (w/w) and 0.888 % (w/w).

For Acetyl Hexapeptide-8, the “% Acetyl Hexapeptide-8 (w/w), vs. wet polymer” value ([1]; polymer K soaked 90 minutes in a 1/5000 dilution with water of the 0.05 % soaking solution) was 0.0017 % (w/w) and 0.0019 % (w/w) and the “% Acetyl Hexapeptide-8 (w/w), vs. wet polymer” value ([1]; polymer K soaked 90 minutes in soaking solution with 0.05 % acetyl hexapeptide-8) was 0.0425 % (w/w) and 0.0420 % (w/w) and 0.0418 % (w/w) and 0.0434 % (w/w).

For `Cn1c(=O)c2c(ncn2C)n(C)c1=O` [caffeine], the “% caffeine (w/w), vs. wet polymer” value ([1]; film of polymer K soaked 30 min in soaking solution with 2 % caffeine, pH 4) was 2.60 % (w/w) and 2.57 % (w/w) and 2.59 % (w/w) and 2.64 % (w/w) and 2.63 % (w/w) (2×) and the “Caffeine in the collected receptor fluid” value [2] was “No caffeine was present”.

For `OC[C@H]1O[C@@H](Oc2ccc(O)cc2)[C@H](O)[C@@H](O)[C@@H]1O` [Arbutin, (2R,3S,4S,5R,6S)-2Hydroxymethyl-6(4hydroxyphenoxy)oxane-3,4,5triol], the “% Arbutin (w/w), vs. wet polymer” value ([1]; film of polymer K soaked 30 minutes in soaking solution with 4 % arbutin, pH 5.5) was 1.42 % (w/w) and 1.61 % (w/w) (2×) and 1.45 % (w/w) and 1.78 % (w/w).
